Assays:
velvetleaf = test: Test B pre/postemergence velvetleaf; format: in vivo, Abutilon theophrasti
Procedure, shortened: (§1)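 Test chemicals in a non-phytotoxic solvent mixture with surfactant were sprayed preemergence onto planted seeds and postemergence onto plants 2 to 18 cm tall (1- to 4-leaf stage). After twelve to sixteen days in a greenhouse, injury was visually rated against untreated controls from 0 (no effect) to 10 (complete control).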

surinam grass = test: Test B pre/postemergence surinam grass; format: in vivo, Brachiaria decumbens
Procedure, shortened: as §1

wild oat = test: Test B pre/postemergence wild oat; format: in vivo, Avena fatua
Procedure, shortened: as §1

rice = test: Test B flood test rice; format: in vivo, Oryza sativa
Procedure, shortened: (§2)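 Read-out is a visual response score from 0 (no effect) to 10 (complete control), assigned by comparison with untreated controls. Treatment was applied at the 2-leaf stage, and plants stayed in the greenhouse for twelve to sixteen days before scoring.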

smallflower flatsedge = test: Test B flood test smallflower flatsedge; format: in vivo, Cyperus difformis
Procedure, shortened: as §2

bamyardgrass = test: Test B flood test barnyardgrass; format: in vivo, Echinochloa crus-galli
Procedure, shortened: as §2

duck salad = test: Test B flood test duck salad; format: in vivo, Heteranthera limosa
Procedure, shortened: as §2

soybean = test: Test B pre/postemergence soybean; format: in vivo, Glycine max
Procedure, shortened: as §1

cocklebur = test: Test B pre/postemergence cocklebur; format: in vivo, Xanthium strumarium
Procedure, shortened: as §1

blackgrass = test: Test B pre/postemergence blackgrass; format: in vivo, Alopecurus myosuroides
Procedure, shortened: as §1

corn = test: Test B pre/postemergence corn; format: in vivo, Zea mays
Procedure, shortened: as §1

crabgrass = test: Test B pre/postemergence crabgrass; format: in vivo, Digitaria sanguinalis
Procedure, shortened: as §1

purple nutsedge = test: Test B pre/postemergence purple nutsedge; format: in vivo, Cyperus rotundus
Procedure, shortened: as §1

sugar beet = test: Test B pre/postemergence sugar beet; format: in vivo, Beta vulgaris
Procedure, shortened: as §1

bedstraw = test: Test B pre/postemergence bedstraw; format: in vivo, Galium aparine; conditions: Postemergence
Procedure, shortened: as §1

wheat = test: Test B pre/postemergence wheat; format: in vivo, Triticum aestivum
Procedure, shortened: as §1

[1] = Postemergence, Rate 125 g/ha, scale 0 to 10, 0 is no effect, 10 is complete control
[2] = Preemergence, Rate 62 g/ha, scale of 0 to 10 where 0 is no effect and 10 is complete control
[3] = Preemergence, Rate 250 g/ha, scale of 0 to 10 where 0 is no effect and 10 is complete control
[4] = Preemergence, Rate 500 g/ha, scale of 0 to 10 where 0 is no effect and 10 is complete control
[5] = Rate 62 g/ha, Postemergence, scale 0 to 10 (0 no effect, 10 complete control)
[6] = Rate 250 g/ha, Postemergence, scale of 0 to 10 where 0 is no effect and 10 is complete control
[7] = Rate 500 g/ha, Postemergence, scale 0 to 10, 0 no effect, 10 complete control
[8] = Rate 62 g/ha, headed Pre-emergence (flood test species), scale 0 to 10 (0 no effect, 10 complete control)
[9] = Rate 125 g/ha, Pre-emergence, flood test species, scale 0 to 10 where 0 is no effect and 10 is complete control
[10] = Rate 250 g/ha, Pre-emergence, flood-test species, scale 0 to 10, 0 is no effect, 10 is complete control
[11] = Rate 500 g/ha, Pre-emergence, flood test species, scale 0 to 10 (0 no effect, 10 complete control)

CC(C)N(C(=O)n1oc(=O)n(C2CC3CCC2C3)c1=O)c1ccc(F)cc1 (centres unmarked) [Compound 327]
4: Wild oats plant response rating (wild oat; [4]) | Blackgrass plant response rating (blackgrass; [3]) | Wheat plant response rating (wheat; [4])
2: Crabgrass plant response rating (0 to 10 scale) (crabgrass; Preemergence, Rate 125 g/ha)
3: Barnyardgrass plant response rating (bamyardgrass; [10]) | Plant response rating, Blackgrass (blackgrass; [6]) | Crabgrass plant response rating (crabgrass; [3]) | Sugarbeets plant response rating (sugar beet; [4])
7: B. signalgrass plant response rating (surinam grass; [4]) | Plant response rating, Soybean (soybean; [7]) | Blackgrass plant response rating (blackgrass; [4]) | Plant response rating, Blackgrass (blackgrass; [7]) | Plant response rating, Bedstraw (bedstraw; Rate 125 g/ha, scale 0 to 10, 0 is no effect, 10 is complete control) | Bedstraw plant response rating (bedstraw; Rate 62 g/ha, scale 0 to 10 (0 no effect, 10 complete control)) | Plant response rating, Bedstraw (bedstraw; Rate 250 g/ha, scale of 0 to 10 where 0 is no effect and 10 is complete control)
1: B. signalgrass plant response rating (surinam grass; [3]) | Plant response rating, Crabgrass (crabgrass; [7]) | Plant response rating, Wheat (wheat; [7])
6: Plant response rating, Soybean (soybean; [1]) | Plant response rating, Soybean (soybean; [6])
5: Soybean plant response rating (soybean; [5]) | Crabgrass plant response rating (crabgrass; [4])
0: Plant response rating, Velvetleaf (velvetleaf; [1]) | Velvetleaf plant response rating (velvetleaf; [2]) | Velvetleaf plant response rating (0 to 10 scale) (velvetleaf; Preemergence, Rate 125 g/ha) | Velvetleaf plant response rating (velvetleaf; [3]) | Velvetleaf plant response rating (velvetleaf; [4]) | Velvetleaf plant response rating (velvetleaf; [5]) | Plant response rating, Velvetleaf (velvetleaf; [6]) | Plant response rating, Velvetleaf (velvetleaf; [7]) | Plant response rating, B. signalgrass (surinam grass; [1]) | B. signalgrass plant response rating (surinam grass; [2]) | B. signalgrass plant response rating (0 to 10 scale, 0 is no effect, 10 is complete control) (surinam grass; Preemergence, Rate 125 g/ha) | B. signalgrass plant response rating (surinam grass; [5]) | Plant response rating, B. signalgrass (surinam grass; [6]) | Plant response rating, B. signalgrass (surinam grass; [7]) | Plant response rating, Wild oats (wild oat; [1]) | Wild oats plant response rating (wild oat; [2]) | Wild oats plant response rating (0 to 10 scale) (wild oat; Preemergence, Rate 125 g/ha) | Wild oats plant response rating (wild oat; [3]) | Wild oats plant response rating (wild oat; [5]) | Plant response rating, Wild oats (wild oat; [6]) | Plant response rating, Wild oats (wild oat; [7]) | Rice plant response rating (rice; [8]) | Rice plant response rating (rice; [9]) | Rice plant response rating (rice; [10]) | Rice plant response rating (rice; [11]) | S. Flatsedge plant response rating (smallflower flatsedge; [8]) | S. Flatsedge plant response rating (smallflower flatsedge; [9]) | S. Flatsedge plant response rating (smallflower flatsedge; [10]) | S. Flatsedge plant response rating (smallflower flatsedge; [11]) | Barnyardgrass plant response rating (bamyardgrass; [8]) | Barnyardgrass plant response rating (bamyardgrass; [9]) | Barnyardgrass plant response rating (bamyardgrass; [11]) | Ducksalad plant response rating (duck salad; [8]) | Ducksalad plant response rating (duck salad; [9]) | Ducksalad plant response rating (duck salad; [10]) | Ducksalad plant response rating (duck salad; [11]) | Soybean plant response rating (soybean; [2]) | Soybean plant response rating (0 to 10 scale) (soybean; Preemergence, Rate 125 g/ha) | Soybean plant response rating (soybean; [3]) | Soybean plant response rating (soybean; [4]) | Plant response rating, Cocklebur (cocklebur; [1]) | Cocklebur plant response rating (cocklebur; [2]) | Cocklebur plant response rating (0 to 10 scale) (cocklebur; Preemergence, Rate 125 g/ha) | Cocklebur plant response rating (cocklebur; [3]) | Cocklebur plant response rating (cocklebur; [4]) | Cocklebur plant response rating (cocklebur; [5]) | Plant response rating, Cocklebur (cocklebur; [6]) | Plant response rating, Cocklebur (cocklebur; [7]) | Plant response rating, Blackgrass (blackgrass; [1]) | Blackgrass plant response rating (blackgrass; [2]) | Blackgrass plant response rating (0 to 10 scale) (blackgrass; Preemergence, Rate 125 g/ha) | Blackgrass plant response rating (blackgrass; [5]) | Plant response rating, Corn (corn; [1]) | Corn plant response rating (corn; [2]) | Corn plant response rating (0 to 10 scale) (corn; Preemergence, Rate 125 g/ha) | Corn plant response rating (corn; [3]) | Corn plant response rating (corn; [4]) | Corn plant response rating (corn; [5]) | Plant response rating, Corn (corn; [6]) | Plant response rating, Corn (corn; [7]) | Plant response rating, Crabgrass (crabgrass; [1]) | Crabgrass plant response rating (crabgrass; [2]) | Crabgrass plant response rating (crabgrass; [5]) | Plant response rating, Crabgrass (crabgrass; [6]) | Plant response rating, Nutsedge (purple nutsedge; [1]) | Nutsedge plant response rating (0 to 10 scale) (purple nutsedge; Preemergence, Rate 125 g/ha) | Nutsedge plant response rating (purple nutsedge; [3]) | Nutsedge plant response rating (purple nutsedge; [4]) | Nutsedge plant response rating (purple nutsedge; [5]) | Plant response rating, Nutsedge (purple nutsedge; [6]) | Plant response rating, Nutsedge (purple nutsedge; [7]) | Plant response rating, Sugarbeets (sugar beet; [1]) | Sugarbeets plant response rating (sugar beet; [2]) | Sugarbeets plant response rating (0 to 10 scale) (sugar beet; Preemergence, Rate 125 g/ha) | Sugarbeets plant response rating (sugar beet; [3]) | Sugarbeets plant response rating (sugar beet; [5]) | Plant response rating, Sugarbeets (sugar beet; [6]) | Plant response rating, Sugarbeets (sugar beet; [7]) | Plant response rating, Wheat (wheat; [1]) | Wheat plant response rating (wheat; [2]) | Wheat plant response rating (wheat; [5]) | Plant response rating, Wheat (wheat; [6])
